Results taken from ChEMBL document CHEMBL1201862, “PubChem BioAssay data set” (2004).
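In this assay, cells in 96-well plates receive the compound at five concentrations for 48 hours. Endpoints are linearly interpolated between the surrounding concentrations. At the GI50, growth is halved.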 Activity calls are given as the source filed them. Rule as the data show it: active = GI50 up to about 1.1 µM and inactive = higher.

Assays:
Test in all cases: NCI-60 cell line screen, 48 h
[1] = tested on: U-251
[2] = tested on: ACHN
[3] = tested on: DU-145
[4] = tested on: MDA-N
[5] = tested on: T47D
[6] = tested on: M14
[7] = tested on: OVCAR-8
[8] = tested on: SF-268
[9] = tested on: 786-0
[10] = tested on: A498
[11] = tested on: MDA-MB-435
[12] = tested on: BT-549
[13] = tested on: HCT-116
[14] = tested on: SW-620
[15] = tested on: HOP-92
[16] = tested on: MCF7
[17] = tested on: SNB-19
[18] = tested on: NCI-H226
[19] = tested on: IGROV-1
[20] = tested on: RPMI-8226
[21] = tested on: UO-31
[22] = tested on: TK-10
[23] = tested on: K562
[24] = tested on: CCRF-CEM
[25] = tested on: UACC-257
[26] = tested on: SK-MEL-5
[27] = tested on: LOX IMVI
[28] = tested on: NCI-H522
[29] = tested on: HL-60
[30] = tested on: SR
[31] = tested on: PC-3
[32] = tested on: SK-OV-3
[33] = tested on: EKVX
[34] = tested on: SNB-75
[35] = tested on: RXF 393
[36] = tested on: CAKI-1
[37] = tested on: SK-MEL-28
[38] = tested on: MDA-MB-231
[39] = tested on: OVCAR-5
[40] = tested on: NCI-H460
[41] = tested on: COLO 205
[42] = tested on: Hs-578T
[43] = tested on: SN12C
[44] = tested on: SK-MEL-2
[45] = tested on: NCI-H23
[46] = tested on: OVCAR-4
[47] = tested on: HCT-15
[48] = tested on: HCC 2998
[49] = tested on: SF-539
[50] = tested on: HT-29
[51] = tested on: A549
[52] = tested on: OVCAR-3
[53] = tested on: Malme-3M
[54] = tested on: HOP-62
[55] = tested on: SF-295
[56] = tested on: KM12
[57] = tested on: MOLT-4
[58] = tested on: UACC-62
[59] = tested on: NCI/ADR-RES

In the case of `COc1ccc2c(c1OC)C[C@@H]1c3c(cc4c(c3-2)OCO4)CCN1C`, the GI50 [1] is reported as 26.9 µM (inactive), the GI50 [2] is reported as 27.5 µM (inactive) and the GI50 [3] is reported as 41.1 µM (inactive). The GI50 [4] was 44.1 µM (inactive), the GI50 [5] was 28.8 µM (inactive) and the GI50 [6] was 25.9 µM (inactive). For the same compound, the GI50 [7] was 30.1 µM (inactive), the GI50 [8] was 37.1 µM (inactive) and the GI50 [9] was 24.2 µM (inactive). For the same compound, the GI50 [10] was 19.1 µM (inactive), the GI50 [11] was 27.5 µM (inactive) and the GI50 [12] was 23.8 µM (inactive). For the same compound, the GI50 [13] was 20.7 µM (inactive), the GI50 [14] was 29.8 µM (inactive) and the GI50 [15] was 12.3 µM (inactive). The GI50 [16] was 16.6 µM (inactive), the GI50 [17] was 42.9 µM (inactive) and the GI50 [18] was 18.1 µM (inactive). For the same compound, the GI50 [19] was 25.4 µM (inactive), the GI50 [20] was 18.5 µM (inactive) and the GI50 [21] was 10.8 µM (inactive). For the same compound, the GI50 [22] was 25 µM (inactive), the GI50 [23] was 20.3 µM (inactive) and the GI50 [24] was 20.3 µM (inactive). The GI50 [25] was 20 µM (inactive), the GI50 [26] was 16.7 µM (inactive) and the GI50 [27] was 15.3 µM (inactive). For the same compound, the GI50 [28] was 19.9 µM (inactive), the GI50 [29] was 8.63 µM (inactive) and the GI50 [30] was 31.5 µM (inactive). The GI50 [31] was 17.5 µM (inactive), the GI50 [32] was 23.3 µM (inactive) and the GI50 [33] was 20.7 µM (inactive). The GI50 [34] was 17.1 µM (inactive), the GI50 [35] was 20.5 µM (inactive) and the GI50 [36] was 31.2 µM (inactive). For the same compound, the GI50 [37] was 29.2 µM (inactive), the GI50 [38] was 33.7 µM (inactive) and the GI50 [39] was 59 µM (inactive). For the same compound, the GI50 [40] was 32.1 µM (inactive), the GI50 [41] was 18.6 µM (inactive) and the GI50 [42] was 34.4 µM (inactive). For the same compound, the GI50 [43] was 42 µM (inactive), the GI50 [44] was 28.2 µM (inactive) and the GI50 [45] was 50.1 µM (inactive). The GI50 [46] was 25.4 µM (inactive), the GI50 [47] was 22.6 µM and the GI50 [48] was 21.3 µM (inactive). The GI50 [49] was 19 µM (inactive), the GI50 [50] was 15.8 µM (inactive) and the GI50 [51] was 40.2 µM (inactive). The GI50 [52] was 41.1 µM (inactive), the GI50 [53] was 30.6 µM (inactive) and the GI50 [54] was 72.8 µM (inactive). For the same compound, the GI50 [55] was 15.6 µM (inactive), the GI50 [56] was 28.8 µM (inactive) and the GI50 [57] was 24.3 µM (inactive). The GI50 [58] was 15.2 µM (inactive).
With `CSC1=N[C@H](c2ccccc2)CS1` the GI50 [1] was > 100 µM (inactive), the GI50 [2] was > 100 µM (inactive) and the GI50 [3] was > 100 µM (inactive). For the same compound, the GI50 [4] was > 100 µM (inactive), the GI50 [5] was > 100 µM (inactive) and the GI50 [6] was > 100 µM (inactive). The GI50 [9] was > 100 µM (inactive), the GI50 [10] was > 100 µM (inactive) and the GI50 [11] was > 100 µM (inactive). For the same compound, the GI50 [12] was > 100 µM (inactive), the GI50 [13] was > 100 µM (inactive) and the GI50 [14] was > 100 µM (inactive). The GI50 [59] was > 100 µM (inactive), the GI50 [16] was > 100 µM (inactive) and the GI50 [17] was > 100 µM (inactive). For the same compound, the GI50 [19] was > 100 µM (inactive), the GI50 [20] was > 100 µM (inactive) and the GI50 [21] was > 100 µM (inactive). The GI50 [22] was > 100 µM (inactive), the GI50 [23] was > 100 µM (inactive) and the GI50 [24] was > 100 µM (inactive). For the same compound, the GI50 [25] was > 100 µM (inactive), the GI50 [26] was > 100 µM (inactive) and the GI50 [31] was > 100 µM (inactive). The GI50 [33] was > 100 µM (inactive), the GI50 [34] was 2.8 µM (inactive) and the GI50 [36] was > 100 µM (inactive). For the same compound, the GI50 [37] was > 100 µM (inactive), the GI50 [39] was > 100 µM (inactive) and the GI50 [40] was > 100 µM (inactive). For the same compound, the GI50 [41] was > 100 µM (inactive), the GI50 [42] was > 100 µM (inactive) and the GI50 [43] was > 100 µM (inactive). The GI50 [44] was > 100 µM (inactive), the GI50 [45] was > 100 µM (inactive) and the GI50 [46] was > 100 µM (inactive). The GI50 [47] was > 100 µM, the GI50 [48] was > 100 µM (inactive) and the GI50 [49] was > 100 µM (inactive). For the same compound, the GI50 [50] was > 100 µM (inactive), the GI50 [51] was > 100 µM (inactive) and the GI50 [52] was > 100 µM (inactive). The GI50 [54] was > 100 µM (inactive), the GI50 [55] was > 100 µM (inactive) and the GI50 [56] was > 100 µM (inactive). For the same compound, the GI50 [57] was > 100 µM (inactive) and the GI50 [58] was > 100 µM (inactive).
With `O=[N+]([O-])c1cccc(/N=N/c2c(O)ccc3ccccc23)c1` the GI50 [1] was 19.6 µM (inactive), the GI50 [3] was > 100 µM (inactive) and the GI50 [4] was 87.3 µM (inactive). For the same compound, the GI50 [5] was > 100 µM (inactive), the GI50 [6] was > 100 µM (inactive) and the GI50 [7] was > 100 µM (inactive). For the same compound, the GI50 [8] was 51.4 µM (inactive), the GI50 [9] was 69.7 µM (inactive) and the GI50 [10] was > 100 µM (inactive). The GI50 [11] was 39.1 µM (inactive), the GI50 [12] was 43.8 µM (inactive) and the GI50 [13] was > 100 µM (inactive). The GI50 [14] was 57 µM (inactive), the GI50 [59] was 70 µM (inactive) and the GI50 [15] was 48.1 µM (inactive). For the same compound, the GI50 [17] was 25.4 µM (inactive), the GI50 [19] was 94.8 µM (inactive) and the GI50 [20] was 54.2 µM (inactive). For the same compound, the GI50 [21] was > 100 µM (inactive), the GI50 [22] was 44.7 µM (inactive) and the GI50 [23] was 69 µM (inactive). For the same compound, the GI50 [24] was 16.2 µM (inactive), the GI50 [25] was > 100 µM (inactive) and the GI50 [26] was 75.7 µM (inactive). The GI50 [27] was > 100 µM (inactive), the GI50 [28] was 45.1 µM (inactive) and the GI50 [31] was 55 µM (inactive). The GI50 [32] was 35.2 µM (inactive), the GI50 [33] was 35.2 µM (inactive) and the GI50 [34] was 91 µM (inactive). For the same compound, the GI50 [35] was 91.2 µM (inactive), the GI50 [36] was > 100 µM (inactive) and the GI50 [37] was 90.4 µM (inactive). For the same compound, the GI50 [38] was 56.4 µM (inactive), the GI50 [39] was > 100 µM (inactive) and the GI50 [41] was > 100 µM (inactive). For the same compound, the GI50 [42] was 49.5 µM (inactive), the GI50 [43] was > 100 µM (inactive) and the GI50 [44] was 50.4 µM (inactive). The GI50 [45] was 70.8 µM (inactive), the GI50 [46] was 66.8 µM (inactive) and the GI50 [47] was 44.6 µM. The GI50 [50] was > 100 µM (inactive), the GI50 [51] was > 100 µM (inactive) and the GI50 [52] was > 10 µM (inactive). The GI50 [53] was 63.1 µM (inactive), the GI50 [54] was 35 µM (inactive) and the GI50 [55] was 31 µM (inactive). The GI50 [56] was 42.4 µM (inactive), the GI50 [57] was 85.3 µM (inactive) and the GI50 [58] was 41.4 µM (inactive).
